In data set [1] the test system is Wistar rats. In words: food-maintained responding. Particulars: food-restricted rats, 1 h session.
The nature of data set [2]: plasma pharmacokinetics after i.p. administration. The settings on record: rat, mean ± SD. It is filed as in vivo.
Data set [3] deals with Wistar rats. In words: cue-induced reinstatement of cocaine-seeking behavior.
Data set [4] deals with Wistar rats. Description: intravenous cocaine self-administration, short. The settings on record: for inactive lever presses: cocaine self-administration; for cocaine self-administration (infusions earned, % of baseline): 30 min pretreatment, vs vehicle.
The next data set concerns the target rat mGluR3 (Rattus norvegicus, UniProt P31422). Description: thallium flux assay, mGluR3 GIRK HEK-293 cells. Type of data set: cell-based. The settings on record: in presence of EC20 glutamate.
Data set [5] relates to Wistar rats. In words: cue-induced reinstatement of food-seeking behavior. Particulars: food-responding rats; 10, 20, 40 mg/kg i.p., between-subjects.
The nature of data set [6]: brain and plasma levels 1 h after administration. Type of data set: in vivo. The settings on record: rat, geometric mean (lower – upper limits).
Data set [7] has as its system Wistar rats. Description: intracranial self-stimulation. Type of data set: in vivo, rat.
The test system of a further data set is ShA rats. Particulars: 3 mg/kg, ref Baptista et al 2004; cited from earlier work.

SMILES strings stand for the structures. Where a name gives a salt, the structure may show the parent alone.

By Cmax is commonly meant the peak of the concentration-time curve.

Sequence of rat mGluR3 (P31422 23-879): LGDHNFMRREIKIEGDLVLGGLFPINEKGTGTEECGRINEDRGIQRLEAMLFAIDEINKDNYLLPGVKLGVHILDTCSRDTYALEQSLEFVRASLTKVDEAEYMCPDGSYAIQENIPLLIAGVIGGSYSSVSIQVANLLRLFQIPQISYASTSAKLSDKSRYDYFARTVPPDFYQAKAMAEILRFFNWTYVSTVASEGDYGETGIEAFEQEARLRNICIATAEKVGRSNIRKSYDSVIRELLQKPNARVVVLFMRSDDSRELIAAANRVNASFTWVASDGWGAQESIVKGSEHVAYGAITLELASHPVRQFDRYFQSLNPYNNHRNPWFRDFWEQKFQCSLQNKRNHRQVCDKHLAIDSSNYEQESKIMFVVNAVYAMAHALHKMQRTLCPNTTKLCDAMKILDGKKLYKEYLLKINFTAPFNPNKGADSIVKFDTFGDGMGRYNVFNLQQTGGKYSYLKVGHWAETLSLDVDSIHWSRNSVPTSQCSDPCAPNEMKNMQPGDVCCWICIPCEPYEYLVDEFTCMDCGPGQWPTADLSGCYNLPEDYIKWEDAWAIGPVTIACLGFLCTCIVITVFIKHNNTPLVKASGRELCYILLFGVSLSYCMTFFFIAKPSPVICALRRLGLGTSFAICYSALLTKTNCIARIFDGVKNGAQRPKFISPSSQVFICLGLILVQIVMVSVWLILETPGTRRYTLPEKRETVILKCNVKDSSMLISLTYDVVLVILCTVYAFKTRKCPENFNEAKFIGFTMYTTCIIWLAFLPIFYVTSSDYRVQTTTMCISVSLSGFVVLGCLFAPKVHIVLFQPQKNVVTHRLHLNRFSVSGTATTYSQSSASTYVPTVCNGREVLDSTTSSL

On to `Cc1c(OCc2cccc(-c3ccc(C(=O)[O-])cc3)c2)cc2c(c1C)C(=O)C(C1CCCC1)C2.[K+]` (centres unmarked) [BINA, potassium 3′-([2-cyclopentyl-6-7-dimethyl-1-oxo-2,3-dihydro-1H-inden-5yloxy]methyl)biphenyll-4-carboxylate], for which the food-maintained responding result with Wistar rats [1] (10, 20, 40 mg/kg i.p.) is “no effect on food responding”. For the same compound, in [2] (20 mg/kg i.p.), the AUC stood at 31 ± 5.0 h μM/L, the Cmax amounted to 9.3 ± 2.7 µM and the Vd is given as 5.9 ± 2.6 L/kg. In [2] (40 mg/kg i.p.), the AUC came to 114 ± 42 h μM/L, the highest level (Cmax) was 31 ± 14 µM and the Vd amounted to 1.7 ± 0.68 L/kg. Also, the “active lever presses in reinstatement sessions” value in the data set on Wistar rats [3] (non-reinstated sub-groups of ShA and LgA rats (median split), 10-40 mg/kg i.p.) is recorded as “no effect of BINA treatment”. The “cue-induced reinstatement of cocaine-seeking behavior” value in the data set on Wistar rats [3] (three ShA rats reinstating by predefined criterion) is given as “tended to reduce cue-induced reinstatement”. For the same compound, the inactive lever presses result in the data set on Wistar rats [4] (10, 20, 40 mg/kg i.p.) is “no effect on inactive lever presses”. In addition, the “potentiation of the glutamate EC20 response” value at rat mGluR3 is “inactive”. For the same compound, the “cue-induced food seeking (active lever presses)” value in the data set on Wistar rats [5] is listed as “no effect on the number of active lever presses”. In addition, in data set [6] (20 mg/kg), the “Brain level (mean)” value is given as 2.78 (0.65 – 6.39) μM and the “Plasma level (mean)” value is reported as 10.54 (0.79 – 25.48) μM. Besides, in data set [6] (40 mg/kg), the “Brain level (mean)” value is 2.30 (0.62 – 5.54) μM and the “Plasma level (mean)” value is 7.79 (0.81 – 16.98) μM. Besides, the “cocaine-induced decrease in ICSS response latencies” value in the data set with Wistar rats [7] (20 mg/kg i.p. combined with cocaine 10 mg/kg i.p.) is on record as “reversed the cocaine-induced decrease in response latencies”. Moreover, in the data set on Wistar rats [7] (40 mg/kg i.p. vs vehicle), the ICSS response latencies result is “significantly increased”. The “cocaine-induced ICSS threshold lowering” value in the data set on Wistar rats [7] (20 and 40 mg/kg i.p. combined with cocaine 10 mg/kg i.p.) is “attenuated cocaine-induced threshold lowering”. Further, the ICSS reward thresholds result in the data set on Wistar rats [7] (administered alone, 20 and 40 mg/kg i.p.) was “significantly elevated reward thresholds”.

Regarding `COC(=O)[C@H]1[C@@H](OC(=O)c2ccccc2)C[C@@H]2CC[C@H]1N2C` [Cocaine, Cocaine hydrochloride, reference compound], in the data set with Wistar rats [7] (10 mg/kg i.p., co-administered with vehicle or 10 mg/kg BINA), the ICSS reward thresholds entry is given as “significantly lowered ICSS thresholds”.

For `N[C@@]1(C(=O)O)CO[C@H]2[C@H](C(=O)O)[C@H]21` [LY379268, [−]-2-oxa-4-aminobicyclo[3.1.0]hexane-4,6-dicarboxylate], in the data set with Wistar rats [1] (6 mg/kg), the food-maintained responding result is reported as “significantly decreased food responding”. For the same compound, the “cocaine self-administration (infusions earned, % of baseline)” value in the data set on Wistar rats [4] (LgA rats, 6 h session and first hour, 6 mg/kg) is “significant decrease in cocaine intake”; with Wistar rats [4] (ShA rats, 1 h session, 3 and 6 mg/kg) it was “significant decrease in cocaine intake”. In addition, the inactive lever presses result with Wistar rats [4] (0.3, 1, 3, 6 mg/kg) was “no effect on inactive lever presses”. For the same compound, the cocaine self-administration entry in the data set on ShA rats is listed as “decreased cocaine self-administration”.

Values taken from paper PMC2922422 (Neuropsychopharmacology : official publication of the …, 2010).
